From patent US20070105162A1, “Monovalent avidin and streptavidin compositions” (Massachusetts Institute of Technology, priority 2005, published 2007)

Legend:
[1] = test system: biotinylated cells; assay: Binding of N23A, S27D streptavidin to biotinylated cells; assay type: cell-based
[2] = literature value; read-out: Kd for biotin, reported; cited from earlier work
[3] = test system: biotinylated AP-CFP-TM on HeLa cells; assay: Staining of biotinylated AP-CFP-TM on HeLa with Alexa Fluor 568-conjugated avidins; assay type: cell-based; conditions: avidin, Alexa Fluor 568 conjugate
Protocol: Enzymatic biotinylation and imaging of HeLa transfectants are performed as previously described (Howarth, M. et al., Proc. Natl. Acad. Sci. USA 102: 7583-7588, 2005), except instead of 10 μM biotin and 1 mM ATP, we add 10 μM biotin-AMP (synthesized according to Coleman and Huang; Coleman, T. M. and Huang, F. Chem. Biol. 9: 1227-1236, 2002) to give equivalent biotinylation but minimizing the risk of purinoreceptor activation by ATP (Rathbone, M. P. et al., Prog. Neurobiol. 59: 663-690, 1999). […] Biotinylation of neurons is performed at day in vitro (DIV) 8 in Hanks' Balanced Salt Solution (HBSS) (Invitrogen) with 0.2 μM biotin ligase and 10 μM biotin-AMP for 5 min at 37° C. […] Neurons are washed with NeuroBasal media (Invitrogen) supplemented with B-27 (Invitrogen), 50 U/mL penicillin, 50 μg/mL streptomycin, and 0.2 mM L-glutamine and chased in the same medium for 0 or 2 hr at 37° C. Cells are then fixed in −20° C. methanol. There was no signal from wild-type avidin labeling if neurons were instead transfected with Ala-neuroligin-1 containing a point mutation in AP, confirming the specificity of labeling. […]
Images of HeLa cells are collected on a Zeiss Axiovert 200M inverted epifluorescence microscope using a 40× oil-immersion lens and a MicroMAX CCD camera (Roper Scientific; Tucson, Ariz.). CFP (420DF20 excitation, 450DRLP dichroic, 475DF40 emission) and Alexa568 (560DF20 excitation, 585DRLP dichroic, 605DF30 emission) images are collected and analyzed using OpenLab software (Improvision; Lexington, Mass.). Fluorescence images are background-corrected. […] Images are scaled to 16 bits and analyzed in Northern Eclipse (Empix Imaging; Ontario, Canada) with user-written software. […] Results are then calculated in terms of clusters per micrometer of dendrite. For assessment of pre-synaptic terminals, clusters are determined as before and average grey levels of clusters are compared between transfected dendrites and untransfected dendrites within the same field of view. […] “n” represents the number of transfected neurons for which clusters were measured. […]

[4] = test system: biotinylated AP-neuroligin-1 on hippocampal neurons; assay: AP-neuroligin-1 clustering in hippocampal neurons labeled with avidin; assay type: cell-based, rat; conditions: after a two hour incubation at 37° C.
Protocol: HeLa cells are grown in Dulbecco's Modified Eagle Medium (DMEM) with 10% Fetal Calf Serum, 50 U/mL penicillin and 50 μg/mL streptomycin. HeLa stably expressing AP-CFP-TM or Ala-CFP-TM have been previously described (Howarth, M. et al., Proc. Natl. Acad. Sci. USA 102: 7583-7588, 2005). Dissociated primary neuronal cultures are prepared from Embryonic Day 18 or 19 (E18/19) rats and transfected with Lipofectamine 2000 at DIV6 as in Levinson et al. (Levinson, J. N. et al. J. Biol. Chem. 280: 17312-17319, 2005). […]
Images of HeLa cells are collected on a Zeiss Axiovert 200M inverted epifluorescence microscope using a 40× oil-immersion lens and a MicroMAX CCD camera (Roper Scientific; Tucson, Ariz.). CFP (420DF20 excitation, 450DRLP dichroic, 475DF40 emission) and Alexa568 (560DF20 excitation, 585DRLP dichroic, 605DF30 emission) images are collected and analyzed using OpenLab software (Improvision; Lexington, Mass.). Fluorescence images are background-corrected. […] Images are scaled to 16 bits and analyzed in Northern Eclipse (Empix Imaging; Ontario, Canada) with user-written software. […] Results are then calculated in terms of clusters per micrometer of dendrite. For assessment of pre-synaptic terminals, clusters are determined as before and average grey levels of clusters are compared between transfected dendrites and untransfected dendrites within the same field of view. […]

Substance: N23A, S27D: Streptavidin double mutant, still a tetramer, one of the weakest reported affinities for biotin
- binding to biotinylated cells [1]: still bound to biotinylated cells
- Kd [2]: 71 µM

Substance: wild-type avidin: Wild-type avidin tetramer of four wild-type monomers (SEQ ID NO:17) [reference compound]
- Alexa staining of biotinylated AP-CFP-TM [3]: detected equally well
- staining pattern of labeled AP-neuroligin-1 [4]: distinct aggregates
